Data from US9034825B2, “Treatment of myocardial injury with humanin analogs” (Albert Einstein College of Medicine of Yeshiva University, priority 2007, dated 2015).

Experiments:
[1] = tested on: signaling kinases in hypothalamus and liver; assay: Western blot of other signaling in hypothalamus and liver after ICV infusion; type: in vivo, rat; conditions: ICV HN
Procedure: (§1) The indicated tissues were homogenized in 20 mM MOPS, 2 mM EGTA, 5 mM EDTA, 30 mM sodium fluoride, 40 mM beta-glycerophosphate, 10 mM sodium pyrophosphate, 2 mM orthovanadate, 0.5% NP-40 and complete protease inhibitor cocktail (Roche, Indianapolis, Ind., USA) and centrifuged at 12,000 g for 15 min and the supernatant was harvested while carefully avoiding the lipid layer on top. Protein concentration was measured with a BCA protein quantification kit (Pierce, Rockford, Ill., USA). Protein extracts were separated on 4-12% NuPAGE (Invitrogen, Carlsbad, Calif., USA) gels and were blotted onto Immobilon FL PVDF (Millipore, Billerica, Mass., USA). […] After three washes in TBS-T and a final wash in TBS the blots were scanned using the LI-COR Odyssey (LI-COR, Lincoln, Nebr., USA) and quantified using Odyssey 2.0 software based on direct fluorescence measurement.
(§2) For acute signaling studies, rats were injected ICV with either aCSF, 20 μg of HN or F6A (dissolved in aCSF) over 5 min, and sacrificed 30 min later. […] Samples were also obtained from these tissues at the end of the clamp and western blot analysis was performed as described previously (Muzumdar et al. 2003) The blots were scanned using the LI-COR Odyssey (LI-COR, Lincoln, Nebr., USA) and quantified using Odyssey 2.0 software based on direct fluorescence measurement. […]

[2] = tested on: phospho Akt and ACC in muscle; assay: Western blot of skeletal muscle insulin signaling after ICV infusion; type: in vivo, rat; conditions: muscle tissues from ICV-infused rats
Procedure: as §1, §2

primary hepatocytes = assay: Glucose production of primary isolated hepatocytes; type: cell-based; conditions: rat hepatocytes explant cultures
Procedure: Single-cell suspensions of hepatocytes were obtained from perfusions of Sprague-Dawley rats using the procedure of Berry and Friend (1969) and the perfusion mixture of Leffert et al (1979). Hepatocyte glucose production was estimated after a 24 hr treatment with HN, F6A and saline as described before (Berg et al. 2001). In a separate set of experiment, hepatocytes were lysed, and protein extracted in RIPA lysis buffer at 30, 60 and 360 min post treatment with FIN, F6A and saline. The cell lysates were then subject to western blotting for Phospho-STAT3 (Tyr705), total-STAT3, Phospho-AKT (Ser473), and total-AKT expression (antibodies purchased from Cell Signaling, #9131, #9132, #9271, #9272).

Structure (SMILES): CC[C@H](C)[C@H](NC(=O)[C@H](CCC(=O)O)NC(=O)[C@H](CO)NC(=O)[C@@H](NC(=O)[C@H](CC(C)C)NC(=O)[C@H](CC(C)C)NC(=O)[C@H](CC(C)C)NC(=O)[C@H](CC(C)C)NC(=O)[C@H](CS)NC(=O)[C@H](CO)NC(=O)[C@H](Cc1ccccc1)NC(=O)CNC(=O)[C@H](CCCNC(=N)N)NC(=O)[C@@H]1CCCN1C(=O)[C@H](C)NC(=O)[C@@H](N)CCSC)[C@@H](C)O)C(=O)N[C@@H](CC(=O)O)C(=O)N[C@@H](CC(C)C)C(=O)N1CCC[C@H]1C(=O)N[C@H](C(=O)N[C@@H](CCCCN)C(=O)N[C@@H](CCCNC(=N)N)C(=O)N[C@@H](CCCNC(=N)N)C(=O)N[C@@H](C)C(=O)O)C(C)C [Humanin, maprgfscll lltseidlpv krra]
- liver pAKT, PGC-1b, FAS, p38, CREB, ACC vs control groups [1]: no significant differences
- phosphorylation in other signaling kinases in the hypothalamus including AKT [1]: Unchanged levels of phosphorylation
- pAKT and acetyl CoA carboxylase in muscle compared to aCSF [2]: significantly increased
- glucose production rates with and without HN (primary hepatocytes): not different
